# From ChEMBL document CHEMBL1201862, “PubChem BioAssay data set” (2004)
# The source made the active and inactive calls.
# How the values were obtained:
# [1] = C. albicans growth with fluconazole, confirmation, fluorescence, retest (AID 2467); format: functional, cell-based
# [2] = NIH-3T3 fibroblast cytotoxicity, dose response, cytotoxicity control, cell-based, fluorescence, Alamar Blue, secondary assay (AID 2327); format: functional;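 further: NIH-3T3 mouse fibroblasts cultured with fluconazole at 8 µg/mL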
# [3] = target: T1, Corticotropin-releasing factor receptor 2/Corticotropin-releasing factor-binding protein (Homo sapiens, UniProt P24387+Q13324); assay: activators of CRF receptor 2 with binding protein – uHTS hits, confirmation (AID 602473); format: functional; details: read-out: EC50_Mean
# T1 sequence (Q13324 whole entry): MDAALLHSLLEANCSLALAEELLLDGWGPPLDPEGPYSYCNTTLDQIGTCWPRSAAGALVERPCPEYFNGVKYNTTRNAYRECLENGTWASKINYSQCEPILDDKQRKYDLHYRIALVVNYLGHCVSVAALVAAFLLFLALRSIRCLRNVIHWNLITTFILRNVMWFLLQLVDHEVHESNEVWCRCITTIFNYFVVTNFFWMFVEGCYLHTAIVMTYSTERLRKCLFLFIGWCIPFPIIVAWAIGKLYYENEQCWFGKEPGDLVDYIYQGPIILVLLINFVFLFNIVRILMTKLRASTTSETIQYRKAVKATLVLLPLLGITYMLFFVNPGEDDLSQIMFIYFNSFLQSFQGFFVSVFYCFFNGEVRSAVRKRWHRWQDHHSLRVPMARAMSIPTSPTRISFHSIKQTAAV
# T1 sequence (P24387 whole entry): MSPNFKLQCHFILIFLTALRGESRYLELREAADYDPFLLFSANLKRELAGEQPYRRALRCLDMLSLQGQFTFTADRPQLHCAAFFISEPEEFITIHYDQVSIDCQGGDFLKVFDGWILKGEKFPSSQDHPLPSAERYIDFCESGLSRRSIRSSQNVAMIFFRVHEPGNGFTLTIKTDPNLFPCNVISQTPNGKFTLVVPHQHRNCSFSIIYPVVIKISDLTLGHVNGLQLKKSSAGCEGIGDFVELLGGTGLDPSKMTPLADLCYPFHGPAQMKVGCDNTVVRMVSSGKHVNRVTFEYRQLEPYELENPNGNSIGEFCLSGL
# [4] = target: Cytochrome P450 3A4 (Homo sapiens, UniProt P08684);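 further: CYP3A4 tested as one member of a cytochrome P450 panel screen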
# Sequence of Cytochrome P450 3A4 (P08684 whole entry): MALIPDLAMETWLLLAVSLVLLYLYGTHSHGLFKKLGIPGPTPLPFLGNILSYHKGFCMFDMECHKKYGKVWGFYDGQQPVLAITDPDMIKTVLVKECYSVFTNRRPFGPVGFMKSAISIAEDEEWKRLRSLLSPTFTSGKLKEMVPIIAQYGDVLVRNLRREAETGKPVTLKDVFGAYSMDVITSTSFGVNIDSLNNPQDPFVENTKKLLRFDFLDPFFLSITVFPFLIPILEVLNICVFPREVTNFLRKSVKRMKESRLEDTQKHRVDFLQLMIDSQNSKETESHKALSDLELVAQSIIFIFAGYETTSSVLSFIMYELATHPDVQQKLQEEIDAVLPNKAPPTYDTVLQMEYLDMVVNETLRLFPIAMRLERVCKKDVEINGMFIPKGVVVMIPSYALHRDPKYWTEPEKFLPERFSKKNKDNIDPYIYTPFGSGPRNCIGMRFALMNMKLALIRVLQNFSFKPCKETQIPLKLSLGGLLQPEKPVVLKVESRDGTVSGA
# [5] = target: Cytochrome P450 2C19 (Homo sapiens, UniProt P33261); assay: Cytochrome panel assay with activity outcomes. Panel member name: p450-cyp2c19 Compounds with AC50 equal or less than 10 uM are considered active; format: functional
# Sequence of Cytochrome P450 2C19 (P33261 whole entry): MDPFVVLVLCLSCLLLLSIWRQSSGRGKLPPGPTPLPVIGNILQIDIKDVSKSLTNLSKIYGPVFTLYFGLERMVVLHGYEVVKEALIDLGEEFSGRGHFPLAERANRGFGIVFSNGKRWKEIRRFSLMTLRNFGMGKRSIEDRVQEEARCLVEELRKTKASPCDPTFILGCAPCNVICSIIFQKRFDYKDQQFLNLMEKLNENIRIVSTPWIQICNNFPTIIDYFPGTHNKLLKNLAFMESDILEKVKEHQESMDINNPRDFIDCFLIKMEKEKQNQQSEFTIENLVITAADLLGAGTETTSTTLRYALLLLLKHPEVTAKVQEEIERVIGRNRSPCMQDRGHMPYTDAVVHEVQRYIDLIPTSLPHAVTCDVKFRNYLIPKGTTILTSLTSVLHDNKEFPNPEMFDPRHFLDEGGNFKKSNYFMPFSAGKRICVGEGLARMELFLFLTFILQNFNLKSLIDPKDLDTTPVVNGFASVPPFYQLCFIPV
# [6] = target: Cytochrome P450 2C9 (Homo sapiens, UniProt P11712)
# Sequence of Cytochrome P450 2C9 (P11712 whole entry): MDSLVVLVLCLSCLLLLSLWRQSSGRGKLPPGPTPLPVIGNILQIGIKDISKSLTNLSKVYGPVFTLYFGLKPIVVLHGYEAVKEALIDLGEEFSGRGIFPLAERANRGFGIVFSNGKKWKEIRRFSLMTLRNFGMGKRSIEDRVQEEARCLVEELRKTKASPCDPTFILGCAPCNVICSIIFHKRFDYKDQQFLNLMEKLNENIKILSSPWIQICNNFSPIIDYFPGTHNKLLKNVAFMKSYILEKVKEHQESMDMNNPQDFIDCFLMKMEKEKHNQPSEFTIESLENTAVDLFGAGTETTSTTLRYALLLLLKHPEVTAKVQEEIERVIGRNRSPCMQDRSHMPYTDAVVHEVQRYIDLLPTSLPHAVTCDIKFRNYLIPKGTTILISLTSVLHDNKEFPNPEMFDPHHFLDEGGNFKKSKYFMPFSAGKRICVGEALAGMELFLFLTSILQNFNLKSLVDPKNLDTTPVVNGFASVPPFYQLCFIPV
# [7] = target: T2, Streptokinase A (Streptococcus pyogenes serotype M1, UniProt P10520); assay: S. pyogenes streptokinase expression inhibitors, potency, dose response, plasminogen activation absorbance, OD405 (AID 1914); format: functional, Streptococcus pyogenes M1 GAS;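 further: secreted streptokinase activity via plasminogen activation per viability signal from cell pellet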
# T2 sequence (P10520 whole entry): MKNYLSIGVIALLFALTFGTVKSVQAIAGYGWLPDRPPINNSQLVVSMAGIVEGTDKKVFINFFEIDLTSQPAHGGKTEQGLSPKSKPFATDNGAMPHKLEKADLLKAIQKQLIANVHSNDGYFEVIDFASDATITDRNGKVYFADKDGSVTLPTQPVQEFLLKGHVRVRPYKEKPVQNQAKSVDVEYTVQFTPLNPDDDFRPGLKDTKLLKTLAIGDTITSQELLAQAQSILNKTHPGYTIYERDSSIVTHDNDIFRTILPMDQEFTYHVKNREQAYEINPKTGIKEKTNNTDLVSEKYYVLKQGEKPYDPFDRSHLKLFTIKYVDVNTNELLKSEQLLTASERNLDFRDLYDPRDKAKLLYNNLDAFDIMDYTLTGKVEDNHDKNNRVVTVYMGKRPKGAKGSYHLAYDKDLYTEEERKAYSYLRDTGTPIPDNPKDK
# [8] = test system: Streptococcus; assay: Group A Streptococcus viability loss, dose response, counter-screen for streptokinase expression inhibitor project, luminescence, BacTiterGlo (AID 1915); format: functional, organism-based;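 further: potency for reduction of bacterial viability or growth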
# [9] = test system: Streptococcus sp. 'group A'; assay: growth inhibition of control SK(-) GAS strain, dose response, counter-screen for streptokinase expression inhibitor project, luminescence, kanamycin, BacTiterGlo, confirmation (AID 1900); format: functional, organism-based
# [10] = target: T3, RNA-binding protein pos-1 (Caenorhabditis elegans, UniProt G5EF15); assay: inhibitors of POS-1/mex-3 RNA binding, dose response, biochemical, fluorescence polarization (AID 1964);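 further: purified POS-1 fused to maltose binding protein made in E. coli; potency of compounds blocking POS-1 binding to fluorescent RNA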
# T3 sequence (G5EF15 whole entry): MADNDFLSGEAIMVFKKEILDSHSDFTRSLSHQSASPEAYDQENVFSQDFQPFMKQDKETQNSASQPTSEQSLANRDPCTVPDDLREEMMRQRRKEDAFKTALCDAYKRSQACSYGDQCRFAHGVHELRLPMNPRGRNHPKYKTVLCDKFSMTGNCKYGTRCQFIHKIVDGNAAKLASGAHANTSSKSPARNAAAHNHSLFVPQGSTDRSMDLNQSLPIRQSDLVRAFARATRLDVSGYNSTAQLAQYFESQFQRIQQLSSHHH
# [11] = target: T4, Zinc finger protein mex-5 (Caenorhabditis elegans, UniProt Q9XUB2); assay: MEX-5/TCR-2 RNA interaction inhibitors, dose response, biochemical, C. elegans, fluorescence polarization (AID 1960)
# T4 sequence (Q9XUB2 whole entry): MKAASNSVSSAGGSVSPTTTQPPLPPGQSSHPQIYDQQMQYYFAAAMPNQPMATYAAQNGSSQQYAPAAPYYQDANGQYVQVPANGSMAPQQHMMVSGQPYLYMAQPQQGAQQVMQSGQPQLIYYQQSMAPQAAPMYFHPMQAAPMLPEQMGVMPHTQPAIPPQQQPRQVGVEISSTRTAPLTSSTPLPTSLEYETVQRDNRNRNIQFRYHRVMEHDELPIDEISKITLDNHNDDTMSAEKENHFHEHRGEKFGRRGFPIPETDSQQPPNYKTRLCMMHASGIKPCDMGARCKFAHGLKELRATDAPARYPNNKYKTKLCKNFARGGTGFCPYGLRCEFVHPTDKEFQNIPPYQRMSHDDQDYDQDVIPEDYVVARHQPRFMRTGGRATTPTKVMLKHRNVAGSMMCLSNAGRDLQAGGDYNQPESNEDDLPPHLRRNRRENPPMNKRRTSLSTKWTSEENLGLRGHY
# [12] = target: Cytochrome P450 2D6 (Homo sapiens, UniProt P10635);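 further: CYP2D6 member of a cytochrome P450 panel assay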
# Sequence of Cytochrome P450 2D6 (P10635 whole entry): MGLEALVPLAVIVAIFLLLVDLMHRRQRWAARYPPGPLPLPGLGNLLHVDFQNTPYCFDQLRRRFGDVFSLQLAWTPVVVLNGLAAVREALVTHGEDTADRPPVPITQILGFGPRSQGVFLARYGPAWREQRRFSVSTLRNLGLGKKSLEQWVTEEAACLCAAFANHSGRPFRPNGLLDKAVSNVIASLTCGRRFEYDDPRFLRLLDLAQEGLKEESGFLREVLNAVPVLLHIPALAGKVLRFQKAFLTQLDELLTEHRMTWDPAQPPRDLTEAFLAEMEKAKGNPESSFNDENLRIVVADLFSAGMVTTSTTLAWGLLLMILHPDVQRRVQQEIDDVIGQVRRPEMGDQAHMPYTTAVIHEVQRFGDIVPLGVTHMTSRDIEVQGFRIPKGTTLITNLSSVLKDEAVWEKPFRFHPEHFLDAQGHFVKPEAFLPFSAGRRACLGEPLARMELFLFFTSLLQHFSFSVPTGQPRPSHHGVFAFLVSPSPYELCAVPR
# [13] = target: T5, Cytochrome P450 1A2 (Homo sapiens, UniProt P05177);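 further: PubChem cytochrome P450 panel assay, CYP1A2 panel member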
# T5 sequence (P05177 whole entry): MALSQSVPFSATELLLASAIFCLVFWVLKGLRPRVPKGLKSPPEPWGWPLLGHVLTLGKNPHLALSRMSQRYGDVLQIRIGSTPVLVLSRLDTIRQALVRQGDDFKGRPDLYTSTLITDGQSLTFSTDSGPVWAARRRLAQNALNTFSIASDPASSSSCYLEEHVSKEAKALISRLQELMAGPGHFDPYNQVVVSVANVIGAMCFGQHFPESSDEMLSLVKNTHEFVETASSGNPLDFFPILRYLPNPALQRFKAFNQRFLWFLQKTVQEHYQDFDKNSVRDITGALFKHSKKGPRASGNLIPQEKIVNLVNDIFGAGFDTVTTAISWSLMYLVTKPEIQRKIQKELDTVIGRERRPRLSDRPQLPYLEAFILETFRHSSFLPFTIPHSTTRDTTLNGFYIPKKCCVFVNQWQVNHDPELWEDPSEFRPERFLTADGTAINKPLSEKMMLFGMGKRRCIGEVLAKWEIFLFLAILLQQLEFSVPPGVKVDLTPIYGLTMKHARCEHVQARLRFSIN
structure (smiles),measurement,setting,value
COc1ccnc(Oc2cccc(C(F)(F)F)c2)c1C(=O)N=CNOCc1ccccc1F,EC50,[1],> 38 µM (not active)
same,EC50,[2],> 150 µM (inactive)
CCOC(=O)Cc1csc(NC(=O)CSc2nnc(-c3ccc(NS(=O)(=O)CC)cc3)o2)n1,EC50,[1],> 38 µM (not active)
same,EC50,[2],> 150 µM (inactive)
CC(C)NS(=O)(=O)c1ccc(NC(=O)C(C)Oc2ccc(C(=O)c3ccccc3)cc2)cc1 (centres undefined),EC50,[3],4.6 µM (active)
COc1ccc(OC)c2nc(O)c(CCNS(=O)(=O)c3ccccc3)cc12,AC50,[4],14.1 µM (inconclusive)
same,AC50,[5]; read-out: AC50,3.16 µM (inconclusive)
same,AC50,[6],14.1 µM (inconclusive)
CCCCNCCOCCSc1ccc(Cl)cc1,AC50,[4],14.1 µM (inconclusive)
same,AC50,[5]; read-out: AC50,17.8 µM (inconclusive)
O=C(COC(=O)CC(c1ccccc1)c1ccccc1)NCc1ccc(Cl)cc1,EC50,[3],> 53 µM (inactive)
COc1ccc(CNCCNC(=O)c2ccco2)c(OC)c1OC,EC50,[1],> 38 µM (not active)
same,EC50,[2],> 160 µM (inactive)
CC(C)(C)c1ccc(C(=O)NNc2ccc(F)cc2F)cc1,EC50,[1],> 38 µM (not active)
same,EC50,[2],32.2 µM (active)
Cc1ccc(C(=O)NC(=S)NNC(=O)c2cccc([N+](=O)[O-])c2)cc1,EC50,[7],> 150 µM (not active)
same,EC50,[8],21.7 µM (active)
same,EC50,[3],2.89 µM (active)
same,EC50,[9],1.53 µM (active)
COC(=O)c1cc(C(=O)OC)cc(-n2c(C)cc(C=O)c2C)c1,EC50,[10],78.7 µM (active)
same,EC50,[11],> 300 µM (not active)
Cc1ccc(C)c(NC(S)=NNC(=O)c2csc3c2CCC(C)C3)c1 (centres undefined),EC50,[1],3.32 µM (active)
same,EC50,[2],> 150 µM (inactive)
O=C(CSc1nnc(-c2cccs2)n1-c1ccccc1)N1CCCC1,AC50,[4],28.2 µM (inconclusive)
same,AC50,[5]; read-out: AC50,28.2 µM (inconclusive)
same,AC50,[12],7.94 µM (inconclusive)
same,AC50,[6],12.6 µM (inconclusive)
CC(CP(=O)(O)O)NC(=O)Cc1ccccc1 (centres undefined),AC50,[5],inconclusive
COc1ccccc1-c1ccc2ncnc(N3CCN(C)CC3)c2c1,AC50,[5]; read-out: AC50,15.8 µM (inconclusive)
same,AC50,[12],39.8 µM (inconclusive)
COc1cccc(Cn2c(=O)c(-c3ccccc3)nc3cnc(OC)nc32)c1,AC50,[5]; read-out: AC50,39.8 µM (inconclusive)
same,AC50,[12],39.8 µM (inconclusive)
same,AC50,[13],15.8 µM (inconclusive)
CCC(=O)Nc1ccc(C(=O)NNC(=O)c2cccs2)cc1,AC50,[5]; read-out: AC50,0.891 µM (inconclusive)
